In patent publication US20080153794A1, “Medicaments and methods for wound healing” (RENOVO LIMITED, priority 2006, published 2008):

How the values were obtained:
[1] = tested on: full thickness excisional wounds (punch biopsies); experiment: Rat full thickness excisional wound model (study 3): re-epithelialisation at test concentrations, injection 20 minutes before wounding; format: in vivo, adult male Sprague-Dawley rats; settings: intradermal 20 minutes before wounding, day 3, five rats
From the text: Animals were killed, and their wounds harvested, three days after wounding. The wounds were excised and treated for histology. […] All histological assessments of early wound healing events were made using preserved 5 micron-thickness wound sections taken from the widest part of each excised biopsy site. Sections were stained with Haematoxylin and Eosin to aid visualisation of structural features, and measurements made using image analysis software. The distance traveled by the epithelium is derived from two histological measurements: the freehand total wound diameter and the freehand non-epithelialised wound diameter. The non-epithelialised diameter is subtracted from the total wound diameter, to determine the distance which the new epithelium has covered since the time of wounding. Percentage re-epithelialisation for the new epithelium was calculated as a proportion of the total wound diameter. The average percentage re-epithelialisation value was calculated from the wounds of the […] within each treatment group. […] 100 μl of the medicament to be tested was administered by intradermal injection at sites on the dorsal surface of experimental rats, 20 minutes prior to formation of a full thickness punch biopsy at the injected site. One injection and excisional wound was made per animal, and five adult male Sprague-Dawley rats used per treatment group. Acceleration of wound healing achieved using the test concentrations of the medicaments of the invention was investigated using the protocols set out under 1.1.4 above.

[2] = tested on: partial thickness wounds; experiment: Pig partial thickness wound healing model (model of split thickness skin graft donor sites); format: in vivo, male Large White pigs; settings: 100 μl per cm^2 intradermal, five days after wounding, four pigs
Experimental: Test medicaments were administered by intradermal injection to provide 100 μl of medicament per cm^2 to sites on experimental pigs where wounds were to be formed. Thus a total volume of 625 μl of the test medicament was administered per wound site. After administration of the medicaments 2.5 cm by 2.5 cm (6.25 cm^2) partial thickness wounds were made using a 25 mm dermatome (Nouvag) at a depth setting of 0.55 mm. A single wound was treated per animal, and each treatment group comprised four male Large White pigs. Animals were killed, and their wounds harvested, five days after wounding. The wounds were excised and treated for histology. […] After being allowed fixed for 48 hours wounded tissue was bisected into four even sections. All bisected sections were processed to wax and embedded into individual wax blocks. Tissue was sectioned through to the end of the block where at every 250 μm, a single slide containing a 5 μm thick section was prepared. […] For each section, the freehand epithelialised and freehand non-epithelialised distances were measured using image analysis; freehand epithelialised distance as a proportion of the sum of the epithelialised and non-epithelialised distances was calculated to produce a percentage re-epithelialisation value. Average percentage re-epithelialisation values were calculated per wound and per treatment group.

[3] = tested on: full thickness cutaneous excisional wounds (punch biopsies); experiment: Human 3 mm punch biopsy wounds: re-epithelialisation; format: in vivo, humans; settings: single 100 μl intradermal dose 10-30 minutes before wounding, day 3, 44 wounds
Experimental: Medicaments of the invention were prepared using the constituents described above. […] 44 healthy subjects were recruited to the study, of whom, 40 were healthy males (aged 18-75 years) and 4 were post-menopausal females (aged 53-69 years). The average age of subjects recruited to this study was 42 years. The post-menopausal status of female subjects was confirmed by quantification of serum levels of oestradiol and follicle stimulating hormone (FSH). Serum levels of oestradiol were required to be […], and follicle stimulating hormone levels >31 IU/L. Each subject had four wounds treated with active drug, one corresponding to each of four concentrations of the medicaments produced. The test medicaments were each administered intradermally as a single dose at a volume of 100 μl (sufficient to treat 1 cm^2 of skin) per wound site (the upper, inner aspect of each arm), 10-30 minutes before wounding. Subjects received 3 mm punch biopsies at the sites where the medicaments had been administered. After wounding, all sites received moist wound healing dressings (Standard Care). Biopsy sites were excised, using a 5 mm punch biopsy, three days after wounding. […] Percentage re-epithelialisation for the new epithelium was calculated as a proportion of the total wound diameter. The average percentage re-epithelialisation value was calculated from the 44 wounds of each treatment group.

[4] = 0.1 μg 17β-oestradiol/100 μl of medicament (0.0001% w/v)

`C[C@]12CC[C@@H]3c4ccc(O)cc4CC[C@H]3[C@@H]1CC[C@@H]2O` [17β-oestradiol] showed a re-epithelialisation ([1]; 0.001 μg 17β-oestradiol/100 μl of medicament (0.000001% w/v)) of 23.02%, a re-epithelialisation ([1]; 0.01 μg 17β-oestradiol/100 μl of medicament (0.00001% w/v)) of 29.03% and a re-epithelialisation [1, 4] of 29.95%. It also gave a re-epithelialisation ([1]; 1 μg 17β-oestradiol/100 μl of medicament (0.001% w/v)) of 14.63%, a re-epithelialisation ([1]; 10 μg 17β-oestradiol/100 μl of medicament (0.01% w/v)) of 10.30% and a re-epithelialisation ([2]; 0.1 μg 17β-oestradiol/100 μl of medicament) of 98.15%. For the same compound, the re-epithelialisation ([2]; 0.2 μg 17β-oestradiol/100 μl of medicament) was 98.56%, the “acceleration of re-epithelialisation (in words)” value [3, 4] was “particularly preferable ability to induce acceleration of re-epithelialisation” and the “acceleration of re-epithelialisation (in words)” value ([3]; 0.2 μg 17β-oestradiol/100 μl of medicament (0.0002% w/v)) was “particularly preferable ability to induce acceleration of re-epithelialisation”.
